Measurements taken from patent publication US12053465B2, “KCC2 expression enhancing compounds and uses thereof” (Whitehead Institute for Biomedical Research, priority 2017, dated 2024).

Tests used:
[1] = system: KCC2 expression (KCC2-2A-luciferase reporter); assay: KCC2-2A-luciferase reporter compound screening with RTT KCC2 reporter neurons; format: cell-based, human; conditions: for B Score: MECP2-null RTT human KCC2 reporter neurons, LINCS, SMART, ICCB libraries, Luc/CTG normalized to in-plate DMSO, hit = B score >3; for KCC2 reporter activity in RTT neurons: RTT KCC2-2A-luciferase reporter neurons vs in-plate DMSO
Procedure, shortened: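 MECP2-null RTT human neurons carrying a KCC2-2A-luciferase reporter, differentiated 4 weeks, were treated with library compounds at 10 μM for 1–2 weeks at 37 °C. Lysate luciferase was normalized to CellTiter-Glo ATP per well and expressed as fold change over in-plate DMSO. Hits were called at B score >3.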

KCC2 expression = assay: Western blot of KCC2 in organotypic mouse brain slices; format: cell-based; conditions: organotypic neonatal mouse brain slices, treated 7 days, vs DMSO, MeBIO or medium-only control
human RTT neurons = assay: mEPSC whole-cell patch-clamp recording in cultured human RTT neurons; format: cell-based; conditions: for mEPSC frequency enhancement: RTT neurons with KCC2 shRNA transfection; for frequency of mEPSCs / mEPSC amplitude: cultured human RTT neurons; for mEPSC amplitude: vs DMSO control
Excerpt: Moreover, a reduction in the number or the strength of excitatory glutamatergic synapses in RTT neurons has been observed in postmortem RTT patient brain samples (30), mouse models of RTT (53), and human stem cell-derived RTT neurons (54). Electrophysiology recording was utilized to assess whether KEECs could rescue the deficits in EGABA and excitatory synaptic transmission of RTT neurons. […] We further investigated whether the beneficial effect of KEECs is a direct result of the increases in neuronal KCC2 gene expression. […] Deficits in a number of morphological measurements, including nuclei size and neurite complexity and branching, are hallmarks of RTT neurons (54-56). […] To validate the morphological measurements, electrophysiological measurements of the neuronal membrane capacitance (Cm), an indicator of neuronal cell size (57) that is reduced in RTT neurons, were conducted.
Functionally mature human neuron cultures were obtained by seeding human WT or isogenic RTT NPCs on a layer of primary mouse astrocyte culture as previously described (57). In the cultured WT human neurons, KCC2 expression reaches mature level between 2-3 months (7). We therefore treated the WT or RTT human neurons 8-12 weeks in culture, with compounds for a duration of two weeks before conducting whole-cell patch-clamp recording. The extracellular bath solution, that perfused the recording chamber, consists of (in mM): 120 NaCl, 30 glucose, 25 HEPES, 5 KCl, 2 CaCl2, 1 MgCl2. The pH was adjusted to 7.3 with NaOH. The high-chloride internal pipette solution consists of (in mM): 147 KCl, 5 Na-phosphocreatine, 2 EGTA, 10 HEPES, 4 MgATP, and 0.5 Na2GTP; the pH 7.3 was adjusted with KOH. To record mini EPSC, the membrane potential was held at −70 mV, and 0.5 μM of TTX and 50 μM Picrotoxin were applied with bath solution to block action potential and GABAergic synaptic transmission.
To evoke GABA response, a pipette filled with 100 μM GABA solution was positioned 5-10 μm away from the neuronal cell body. Air pulses at the pressure of 10 p.s.i. and duration of 100 ms were generated with a Picrospritzer (Parker Instrumentation) to puff GABA solution onto neuronal cell body. Neuronal response to GABA puffs were recorded at different membrane holding potentials from −90 mV to +30 mV, and the EGABA values were calculated with linear regression. Electrophysiological signals were recorded with Multiclamp 700A patch-clamp amplifier and data were collected with Clamp 9 software (Molecular Devices, Palo Alto, CA), sampled at 10 kHz and filtered at 1 KHz. Off-line data analyses of mEPSC synaptic events were performed with MiniAnalysis software (Synaptosoft, Decator, GA). All experiments were performed at room temperature. A sample size of 5-8 neurons was used for EGABA measurements, while a sample size of 14-19 neurons was used for mEPSC measurements. All data were presented as mean±SEM. ANOVA test followed by the Bonferroni correction were used for statistical analysis. The Kolmogorov-Smirnov test was employed to compare the cumulative distribution between two datasets.

Compound | B Score [1] | KCC2 reporter activity in RTT neurons [1] | KCC2 protein level (KCC2 expression) | mEPSC frequency enhancement (human RTT neurons) | frequency of mEPSCs (human RTT neurons) | mEPSC amplitude (human RTT neurons)
O=C1Nc2cc(Br)ccc2/C1=C1/Nc2ccccc2/C1=N\O [BIO, (2Z,3E)-6′-bromo-3-(hydroxyimino)-[2,3′-biindolinylidene]-2′-one] | 3.42 | significant increase of KCC2 reporter activity | enhanced KCC2 expression levels | abolished the effect | significantly increased the frequency of mEPSCs to levels equivalent to WT control | significantly increased mEPSC amplitude
O=C(c1ccc(/C=C/c2n[nH]c3ccccc23)cc1)N1CCNCC1 [KW-2449, (E)-(4-(2-(1H-indazol-3-yl)vinyl)phenyl)(piperazin-1-yl)methanone] | 5.45 | significant increase of KCC2 reporter activity | enhanced KCC2 expression levels | abolished the effect | significantly increased the frequency of mEPSCs to levels equivalent to WT control | significantly increased mEPSC amplitude
